The results in this text go back to EP0643693B1, “REVERSAL OF MULTI-DRUG RESISTANCE BY TRIPHENYL-PIPERIDINE DERIVATIVES” (MERRELL PHARMACEUTICALS INC., priority 1992, dated 1993).

SMILES strings stand for the structures. Structures can show the parent of a compound that is named as a salt.

In assay [1] the test system is multidrug resistant human epidermoid carcinoma (KBV1) cells. Put plainly: Growth inhibition of vinblastine-resistant KBV1 cells (reversal of multidrug resistance). It is filed as cell-based. How it is done: The ability of compounds of this invention to reverse multi drug resistance can be determined using standard test procedures. The ability of the test compounds to inhibit the growth of multidrug resistant human epidermoid carcinoma (KBV1) cells in the presence of both Vinblastine and the compound was determined. […]

For assay [2] the test system is unchanged. Described as above. The assay is classed as cell-based. The source holds these as a separate data set.

On to `COc1ccc(CCN2CCCCC2CC(c2ccccc2)c2ccccc2)cc1OC` (stereo not shown) [1-(3,4-Dimethoxyphenethyl)-2-(2,2-diphenylethyl)piperidine Maleate], for which the inhibition at 0.06 µM in assay [1] (KB-V1, compound 0.06 µM + VLB at 0.25 µg/ml) is 30.4%; in assay [2] (Homo sapiens, KB-V1, compound alone, 0.06 µM), 1%. For the same compound, the inhibition at 0.12 µM in assay [1] (KB-V1, compound 0.12 µM + VLB at 0.25 µg/ml) was 60%; in assay [2] (Homo sapiens, KB-V1, compound alone, 0.12 µM), 0%. Further, the inhibition at 0.18 µM was 91.6% in assay [1] (KB-V1, compound 0.18 µM + VLB at 0.25 µg/ml) and 8.1% in assay [2] (Homo sapiens, KB-V1, compound alone, 0.18 µM). The inhibition at 0.23 µM in assay [1] (KB-V1, compound 0.23 µM + VLB at 0.25 µg/ml) was determined as 94.2%; in assay [2] (Homo sapiens, KB-V1, compound alone, 0.23 µM), 12.2%.
With `CC[C@]1(O)C[C@@H]2CN(CCc3c([nH]c4ccccc34)[C@@](C(=O)OC)(c3cc4c(cc3OC)N(C)[C@H]3[C@@](O)(C(=O)OC)[C@H](OC(C)=O)[C@]5(CC)C=CCN6CC[C@]43[C@@H]65)C2)C1` [Vinblastine, reference compound], the inhibition at 0.25 µg/mL in assay [2] (Homo sapiens, KB-V1, VLB at 0.25 µg/ml alone, read-out: growthinhibition) lay in the range of 0 to 10%. In addition, the growth inhibition in assay [2] (Vinblastine (0.25 µg/ml) alone) is 0 - 10%.
